Results from ChEMBL document CHEMBL1201862, “PubChem BioAssay data set” (2004).
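Five concentrations, 48 hours, 96-well plates. At the GI50, growth is halved.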 Activity calls are given as the source filed them. Rule as the data show it: active = GI50 up to about 1.1 µM and inactive = higher.

Legend:
Test in all cases: inhibition of tumour cell growth, NCI panel, 48 h
SK-MEL-2 = system: SK-MEL-2
786-0 = system: 786-0
NCI-H226 = system: NCI-H226
A498 = system: A498
Malme-3M = system: Malme-3M
MCF7 = system: MCF7
Hs-578T = system: Hs-578T
HT-29 = system: HT-29
CCRF-CEM = system: CCRF-CEM
T47D = system: T47D
SNB-19 = system: SNB-19
EKVX = system: EKVX
OVCAR-4 = system: OVCAR-4
SF-539 = system: SF-539
SK-MEL-5 = system: SK-MEL-5
UACC-62 = system: UACC-62
LOX IMVI = system: LOX IMVI
ACHN = system: ACHN
MDA-MB-231 = system: MDA-MB-231
SK-OV-3 = system: SK-OV-3
COLO 205 = system: COLO 205
HOP-62 = system: HOP-62
SK-MEL-28 = system: SK-MEL-28
SN12C = system: SN12C
SF-295 = system: SF-295
NCI-H23 = system: NCI-H23
NCI-H460 = system: NCI-H460
HOP-92 = system: HOP-92
MOLT-4 = system: MOLT-4
UACC-257 = system: UACC-257
DU-145 = system: DU-145
CAKI-1 = system: CAKI-1
MDA-MB-435 = system: MDA-MB-435
RXF 393 = system: RXF 393
A549 = system: A549
SF-268 = system: SF-268
U-251 = system: U-251
BT-549 = system: BT-549
RPMI-8226 = system: RPMI-8226
HCT-116 = system: HCT-116
HL-60 = system: HL-60
M14 = system: M14
NCI/ADR-RES = system: NCI/ADR-RES
SR = system: SR
MDA-N = system: MDA-N
IGROV-1 = system: IGROV-1
SW-620 = system: SW-620
PC-3 = system: PC-3
K562 = system: K562
HCC 2998 = system: HCC 2998
NCI-H522 = system: NCI-H522
SNB-75 = system: SNB-75
OVCAR-8 = system: OVCAR-8
TK-10 = system: TK-10
HCT-15 = system: HCT-15
KM12 = system: KM12
OVCAR-5 = system: OVCAR-5
UO-31 = system: UO-31
OVCAR-3 = system: OVCAR-3

Measured: GI50

O=C1Cc2c(-c3ccccc3)cc(-c3ccc(Cl)cc3)nc2-c2ccccc2N1
inactive: SK-MEL-2 17.1 µM | 786-0 1.73 µM | NCI-H226 3.07 µM | A498 1.75 µM | Malme-3M 5.02 µM | MCF7 8.89 µM | Hs-578T 2.88 µM | HT-29 3.66 µM | CCRF-CEM 5.97 µM | T47D 3.23 µM | SNB-19 1.94 µM | EKVX 6.92 µM | OVCAR-4 1.7 µM | SF-539 5.83 µM | SK-MEL-5 3.65 µM | UACC-62 5.57 µM | LOX IMVI 6.22 µM | ACHN 2.4 µM | MDA-MB-231 4.13 µM | SK-OV-3 2.39 µM | COLO 205 2.96 µM | HOP-62 3.66 µM | SK-MEL-28 2.94 µM | SN12C 3.33 µM | SF-295 5.89 µM | NCI-H23 4.03 µM | NCI-H460 3.21 µM | HOP-92 2.3 µM | MOLT-4 7.8 µM | UACC-257 14.2 µM | DU-145 16.7 µM | CAKI-1 3.91 µM | MDA-MB-435 8.99 µM | RXF 393 3.77 µM | A549 9.35 µM | SF-268 4.85 µM | U-251 1.72 µM | BT-549 17.1 µM | RPMI-8226 8.47 µM | HCT-116 1.98 µM | HL-60 14.5 µM | M14 9.95 µM | NCI/ADR-RES 3.14 µM | SR 10 µM | MDA-N 6.9 µM | IGROV-1 4.62 µM | SW-620 6.7 µM | PC-3 10.1 µM | K562 19 µM | HCC 2998 6.07 µM | NCI-H522 2.18 µM | SNB-75 2.03 µM | OVCAR-8 2.37 µM | TK-10 3.41 µM | KM12 7.89 µM | OVCAR-5 11 µM | UO-31 2.05 µM | OVCAR-3 8.73 µM
6.68 µM: HCT-15
